Laboratory results as given in ChEMBL document CHEMBL1629443 (J Med Chem, 2010).

Key:
Histone deacetylase 1 = Histone deacetylase 1 (Homo sapiens, UniProt Q13547); assay: Inhibition of human recombinant HDAC1 expressed in HEK293 cells; format: cell-based
Histone deacetylase 3 = Histone deacetylase 3 (Homo sapiens, UniProt O15379); assay: Inhibition of Flag tagged human recombinant HDAC3 expressed in Sf21 cells coexpressing SMRT DAD domain
Histone deacetylase = assay: Inhibition of HDAC in human HeLa cell nuclear extracts; format: cell-based
[1] = molecular target: T1, Epidermal growth factor receptor (Homo sapiens, UniProt P00533); assay: Inhibition of EGFR by flash plate based radioactive enzyme assay
T1 sequence (P00533 whole entry): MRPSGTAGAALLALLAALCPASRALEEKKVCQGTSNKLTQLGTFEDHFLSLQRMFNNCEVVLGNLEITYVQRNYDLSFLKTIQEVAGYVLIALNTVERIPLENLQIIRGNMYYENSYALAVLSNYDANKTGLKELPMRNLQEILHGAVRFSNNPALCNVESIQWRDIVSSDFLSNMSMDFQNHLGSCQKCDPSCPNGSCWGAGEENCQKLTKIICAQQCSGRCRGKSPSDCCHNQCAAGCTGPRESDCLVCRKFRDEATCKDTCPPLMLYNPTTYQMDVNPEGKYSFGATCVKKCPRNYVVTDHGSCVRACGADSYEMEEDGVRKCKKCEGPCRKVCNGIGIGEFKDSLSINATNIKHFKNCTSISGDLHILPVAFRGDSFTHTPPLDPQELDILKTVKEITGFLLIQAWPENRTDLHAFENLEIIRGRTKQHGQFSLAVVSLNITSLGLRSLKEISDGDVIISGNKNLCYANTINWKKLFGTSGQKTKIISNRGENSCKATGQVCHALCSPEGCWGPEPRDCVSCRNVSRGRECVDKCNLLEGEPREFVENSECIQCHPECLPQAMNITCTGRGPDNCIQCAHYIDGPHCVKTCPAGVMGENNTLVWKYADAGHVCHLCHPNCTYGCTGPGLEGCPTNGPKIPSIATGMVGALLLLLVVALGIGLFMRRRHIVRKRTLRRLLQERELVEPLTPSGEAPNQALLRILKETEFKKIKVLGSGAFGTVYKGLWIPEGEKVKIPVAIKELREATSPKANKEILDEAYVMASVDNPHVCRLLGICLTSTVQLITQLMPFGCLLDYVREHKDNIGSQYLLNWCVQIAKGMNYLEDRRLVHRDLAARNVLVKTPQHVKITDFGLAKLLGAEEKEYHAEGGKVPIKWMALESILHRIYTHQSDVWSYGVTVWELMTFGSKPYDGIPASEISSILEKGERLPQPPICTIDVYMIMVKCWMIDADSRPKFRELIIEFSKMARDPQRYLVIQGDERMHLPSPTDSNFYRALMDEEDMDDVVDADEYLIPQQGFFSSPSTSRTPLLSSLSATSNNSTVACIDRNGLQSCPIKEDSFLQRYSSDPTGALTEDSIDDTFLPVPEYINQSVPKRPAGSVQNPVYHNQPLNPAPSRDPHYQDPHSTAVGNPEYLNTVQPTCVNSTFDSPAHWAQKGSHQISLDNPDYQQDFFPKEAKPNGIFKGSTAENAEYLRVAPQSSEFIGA

Insulin receptor = Insulin receptor (Homo sapiens, UniProt P06213); assay: Inhibition of INSR by flash plate based radioactive enzyme assay
[2] = Inhibition of HDAC assessed as histone H3K'9+14 acetylation levels by cell based histone H3 hyperacetylation assay
SK-OV-3 = assay: Cytotoxicity against human SKOV3 cells overexpressing HER2 by resazurin dye reduction assay; format: functional, cell-based
CAL-27 = assay: Cytotoxicity against human CAL27 cells overexpressing EGFR by resazurin dye reduction assay
[3] = molecular target: Tyrosine-protein kinase ABL1 (Homo sapiens, UniProt P00519); assay: Inhibition of ABL1 by flash plate based radioactive enzyme assay
Chain of Tyrosine-protein kinase ABL1 (P00519 whole entry): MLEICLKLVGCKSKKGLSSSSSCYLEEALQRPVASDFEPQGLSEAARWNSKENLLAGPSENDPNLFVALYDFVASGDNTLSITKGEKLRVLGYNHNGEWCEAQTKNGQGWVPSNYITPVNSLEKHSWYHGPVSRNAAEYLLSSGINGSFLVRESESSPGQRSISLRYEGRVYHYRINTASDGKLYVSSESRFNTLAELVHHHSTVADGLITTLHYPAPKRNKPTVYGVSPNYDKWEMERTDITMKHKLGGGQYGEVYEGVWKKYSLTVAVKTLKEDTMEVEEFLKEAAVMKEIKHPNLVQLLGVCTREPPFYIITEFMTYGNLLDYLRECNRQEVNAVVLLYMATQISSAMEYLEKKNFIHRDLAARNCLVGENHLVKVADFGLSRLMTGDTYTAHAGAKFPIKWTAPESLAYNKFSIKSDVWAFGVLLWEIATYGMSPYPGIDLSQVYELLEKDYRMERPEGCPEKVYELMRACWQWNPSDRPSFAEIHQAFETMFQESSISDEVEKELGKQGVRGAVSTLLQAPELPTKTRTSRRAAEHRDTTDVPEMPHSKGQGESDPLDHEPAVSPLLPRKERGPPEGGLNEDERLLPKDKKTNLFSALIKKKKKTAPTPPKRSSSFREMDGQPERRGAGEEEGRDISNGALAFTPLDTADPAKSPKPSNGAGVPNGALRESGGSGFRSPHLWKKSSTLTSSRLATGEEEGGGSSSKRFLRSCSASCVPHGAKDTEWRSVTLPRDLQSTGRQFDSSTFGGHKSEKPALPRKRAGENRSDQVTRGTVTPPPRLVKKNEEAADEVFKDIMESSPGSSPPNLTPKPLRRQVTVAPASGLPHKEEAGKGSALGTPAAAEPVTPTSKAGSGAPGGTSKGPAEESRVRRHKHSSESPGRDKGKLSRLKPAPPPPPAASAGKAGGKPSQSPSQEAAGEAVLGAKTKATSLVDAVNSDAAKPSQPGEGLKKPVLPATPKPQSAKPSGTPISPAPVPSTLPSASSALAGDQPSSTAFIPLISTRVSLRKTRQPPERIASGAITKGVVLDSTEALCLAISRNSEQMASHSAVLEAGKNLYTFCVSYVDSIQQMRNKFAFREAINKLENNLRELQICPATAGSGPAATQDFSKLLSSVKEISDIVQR

[4] = molecular target: Cyclin-dependent kinase 2 (Homo sapiens, UniProt P24941); assay: Inhibition of CDK2 by flash plate based radioactive enzyme assay
A-431 = assay: Cytotoxicity against human A431 cells overexpressing EGFR by resazurin dye reduction assay
[5] = molecular target: Receptor tyrosine-protein kinase erbB-2 (Homo sapiens, UniProt P04626); assay: Inhibition of HER2 by flash plate based radioactive enzyme assay
Chain of Receptor tyrosine-protein kinase erbB-2 (P04626 whole entry): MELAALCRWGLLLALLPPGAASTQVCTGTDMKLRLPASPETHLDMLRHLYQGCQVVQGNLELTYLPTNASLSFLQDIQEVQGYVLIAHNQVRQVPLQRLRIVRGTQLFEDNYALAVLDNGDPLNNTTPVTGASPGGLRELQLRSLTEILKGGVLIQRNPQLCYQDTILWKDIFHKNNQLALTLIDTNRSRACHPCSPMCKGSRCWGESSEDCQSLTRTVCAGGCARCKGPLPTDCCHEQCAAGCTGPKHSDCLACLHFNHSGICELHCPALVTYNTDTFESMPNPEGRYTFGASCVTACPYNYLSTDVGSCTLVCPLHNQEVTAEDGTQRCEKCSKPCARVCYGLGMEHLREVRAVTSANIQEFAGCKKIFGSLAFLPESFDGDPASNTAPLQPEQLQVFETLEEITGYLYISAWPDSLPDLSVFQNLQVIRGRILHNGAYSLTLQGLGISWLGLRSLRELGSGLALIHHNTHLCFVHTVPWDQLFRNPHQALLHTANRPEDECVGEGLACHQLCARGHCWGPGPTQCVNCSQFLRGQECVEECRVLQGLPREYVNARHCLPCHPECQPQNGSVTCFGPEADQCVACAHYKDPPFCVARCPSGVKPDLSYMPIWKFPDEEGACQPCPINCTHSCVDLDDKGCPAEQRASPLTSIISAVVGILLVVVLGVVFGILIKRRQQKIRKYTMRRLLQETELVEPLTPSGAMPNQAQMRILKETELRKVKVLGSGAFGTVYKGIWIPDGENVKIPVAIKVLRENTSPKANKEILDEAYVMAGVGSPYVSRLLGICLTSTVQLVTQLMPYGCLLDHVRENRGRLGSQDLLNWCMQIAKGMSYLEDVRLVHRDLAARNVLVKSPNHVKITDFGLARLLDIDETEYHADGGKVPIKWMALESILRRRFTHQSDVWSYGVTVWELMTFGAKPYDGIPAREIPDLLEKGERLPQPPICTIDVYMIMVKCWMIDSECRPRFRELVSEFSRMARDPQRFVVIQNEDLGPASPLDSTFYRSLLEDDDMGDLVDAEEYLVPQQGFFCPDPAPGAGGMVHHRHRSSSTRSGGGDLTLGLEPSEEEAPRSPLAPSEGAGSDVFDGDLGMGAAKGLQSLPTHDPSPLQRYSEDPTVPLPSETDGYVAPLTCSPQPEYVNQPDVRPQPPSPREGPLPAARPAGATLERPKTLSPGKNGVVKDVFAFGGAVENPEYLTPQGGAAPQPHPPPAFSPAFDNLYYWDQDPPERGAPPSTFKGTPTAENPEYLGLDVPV

[6] = molecular target: Platelet-derived growth factor receptor beta (Homo sapiens, UniProt P09619); assay: Inhibition of PDGFRbeta by flash plate based radioactive enzyme assay
Chain of Platelet-derived growth factor receptor beta (P09619 whole entry): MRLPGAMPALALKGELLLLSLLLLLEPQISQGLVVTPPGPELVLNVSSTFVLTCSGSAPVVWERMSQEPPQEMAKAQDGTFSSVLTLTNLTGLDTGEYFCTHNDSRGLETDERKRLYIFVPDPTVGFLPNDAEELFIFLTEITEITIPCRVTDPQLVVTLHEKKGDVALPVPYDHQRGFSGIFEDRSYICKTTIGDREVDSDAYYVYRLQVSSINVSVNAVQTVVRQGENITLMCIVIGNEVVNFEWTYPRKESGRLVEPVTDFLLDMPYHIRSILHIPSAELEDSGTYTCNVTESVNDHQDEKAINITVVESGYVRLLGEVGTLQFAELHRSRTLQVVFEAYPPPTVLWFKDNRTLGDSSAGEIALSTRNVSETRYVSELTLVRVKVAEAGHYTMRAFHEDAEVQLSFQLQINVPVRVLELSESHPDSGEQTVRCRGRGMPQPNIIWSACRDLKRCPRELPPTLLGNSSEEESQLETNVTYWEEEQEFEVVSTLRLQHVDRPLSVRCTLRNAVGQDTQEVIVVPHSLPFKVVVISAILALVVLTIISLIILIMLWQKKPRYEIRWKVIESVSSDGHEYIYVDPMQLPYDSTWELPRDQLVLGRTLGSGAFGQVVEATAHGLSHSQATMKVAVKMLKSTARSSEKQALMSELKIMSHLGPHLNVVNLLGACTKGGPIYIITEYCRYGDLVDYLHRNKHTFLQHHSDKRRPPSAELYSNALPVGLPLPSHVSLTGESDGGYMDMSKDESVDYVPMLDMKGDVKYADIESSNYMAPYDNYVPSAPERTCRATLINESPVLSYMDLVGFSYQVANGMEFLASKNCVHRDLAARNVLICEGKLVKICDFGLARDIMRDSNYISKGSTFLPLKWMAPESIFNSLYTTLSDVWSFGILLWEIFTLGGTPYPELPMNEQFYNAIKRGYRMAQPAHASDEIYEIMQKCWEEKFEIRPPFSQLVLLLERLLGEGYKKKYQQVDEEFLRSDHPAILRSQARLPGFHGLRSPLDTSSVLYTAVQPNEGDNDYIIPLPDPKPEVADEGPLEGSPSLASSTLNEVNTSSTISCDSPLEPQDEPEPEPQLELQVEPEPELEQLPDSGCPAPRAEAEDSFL

SK-BR-3 = assay: Cytotoxicity against human SKBR3 cells overexpressing HER2 by resazurin dye reduction assay
[7] = molecular target: T2, Protein deacetylase HDAC6 (Homo sapiens, UniProt Q9UBN7); assay: Inhibition of human recombinant HDAC6 expressed in HEK293 cells; format: cell-based
T2 sequence (Q9UBN7 whole entry): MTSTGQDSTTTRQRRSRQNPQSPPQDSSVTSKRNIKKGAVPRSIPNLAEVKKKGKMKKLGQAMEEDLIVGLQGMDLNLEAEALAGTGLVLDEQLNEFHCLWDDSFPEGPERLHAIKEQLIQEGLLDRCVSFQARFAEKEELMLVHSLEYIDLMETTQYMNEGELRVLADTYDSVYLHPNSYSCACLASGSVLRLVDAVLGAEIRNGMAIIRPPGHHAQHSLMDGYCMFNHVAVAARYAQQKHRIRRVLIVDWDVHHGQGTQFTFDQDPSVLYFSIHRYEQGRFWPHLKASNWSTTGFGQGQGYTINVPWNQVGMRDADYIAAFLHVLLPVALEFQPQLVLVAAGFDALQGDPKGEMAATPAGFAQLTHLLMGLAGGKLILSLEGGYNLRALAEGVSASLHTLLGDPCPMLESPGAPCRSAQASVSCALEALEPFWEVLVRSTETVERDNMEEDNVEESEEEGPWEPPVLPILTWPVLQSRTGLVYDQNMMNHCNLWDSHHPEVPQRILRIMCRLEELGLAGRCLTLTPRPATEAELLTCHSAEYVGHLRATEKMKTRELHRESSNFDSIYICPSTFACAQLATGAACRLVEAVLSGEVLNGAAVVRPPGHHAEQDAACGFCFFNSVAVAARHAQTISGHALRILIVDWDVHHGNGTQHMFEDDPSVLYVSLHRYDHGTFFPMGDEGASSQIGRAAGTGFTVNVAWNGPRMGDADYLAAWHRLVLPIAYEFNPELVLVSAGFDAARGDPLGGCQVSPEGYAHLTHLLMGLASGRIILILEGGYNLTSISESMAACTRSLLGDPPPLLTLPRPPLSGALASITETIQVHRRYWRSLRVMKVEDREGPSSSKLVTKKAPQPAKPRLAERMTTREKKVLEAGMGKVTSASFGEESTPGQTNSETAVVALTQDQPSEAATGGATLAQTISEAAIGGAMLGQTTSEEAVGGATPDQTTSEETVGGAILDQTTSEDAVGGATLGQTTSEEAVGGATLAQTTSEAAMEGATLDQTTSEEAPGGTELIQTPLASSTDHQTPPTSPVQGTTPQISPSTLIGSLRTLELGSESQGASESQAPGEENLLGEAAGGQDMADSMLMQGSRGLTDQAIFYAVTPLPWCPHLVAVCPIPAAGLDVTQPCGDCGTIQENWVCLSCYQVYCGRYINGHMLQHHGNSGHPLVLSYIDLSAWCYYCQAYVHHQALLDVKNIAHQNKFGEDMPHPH

[8] = Inhibition of PKA by flash plate based radioactive enzyme assay
Histone deacetylase 8 = molecular target: T3, Histone deacetylase 8 (Homo sapiens, UniProt Q9BY41); assay: Inhibition of Flag tagged human recombinant HDAC8 expressed in Sf21 cells
T3 sequence (Q9BY41 whole entry): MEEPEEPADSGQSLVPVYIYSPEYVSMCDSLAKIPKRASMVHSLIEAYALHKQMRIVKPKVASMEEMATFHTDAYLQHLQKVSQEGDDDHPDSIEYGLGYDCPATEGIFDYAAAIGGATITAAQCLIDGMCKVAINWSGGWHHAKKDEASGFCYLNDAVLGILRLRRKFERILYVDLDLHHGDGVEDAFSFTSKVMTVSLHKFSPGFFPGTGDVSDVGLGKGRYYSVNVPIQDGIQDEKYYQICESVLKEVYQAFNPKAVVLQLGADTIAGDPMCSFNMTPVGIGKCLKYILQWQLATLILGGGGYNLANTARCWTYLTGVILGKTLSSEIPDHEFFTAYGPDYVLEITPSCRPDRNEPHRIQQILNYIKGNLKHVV

A549 = assay: Cytotoxicity against human A549 cells overexpressing HDAC by resazurin dye reduction assay
[9] = molecular target: Serine/threonine-protein kinase PLK1 (Homo sapiens, UniProt P53350); assay: Inhibition of PLK1 by flash plate based radioactive enzyme assay
HeLa = assay: Cytotoxicity against human HeLa cells overexpressing HDAC by resazurin dye reduction assay
[10] = molecular target: T1, Epidermal growth factor receptor; assay: Inhibition of EGF-induced EGFR phosphorylation in human CAL27 cells overexpressing EGFR after 16 hrs by Western blot; format: cell-based, CAL-27

Chain of Histone deacetylase 3 (O15379 whole entry, the tested form may be a part): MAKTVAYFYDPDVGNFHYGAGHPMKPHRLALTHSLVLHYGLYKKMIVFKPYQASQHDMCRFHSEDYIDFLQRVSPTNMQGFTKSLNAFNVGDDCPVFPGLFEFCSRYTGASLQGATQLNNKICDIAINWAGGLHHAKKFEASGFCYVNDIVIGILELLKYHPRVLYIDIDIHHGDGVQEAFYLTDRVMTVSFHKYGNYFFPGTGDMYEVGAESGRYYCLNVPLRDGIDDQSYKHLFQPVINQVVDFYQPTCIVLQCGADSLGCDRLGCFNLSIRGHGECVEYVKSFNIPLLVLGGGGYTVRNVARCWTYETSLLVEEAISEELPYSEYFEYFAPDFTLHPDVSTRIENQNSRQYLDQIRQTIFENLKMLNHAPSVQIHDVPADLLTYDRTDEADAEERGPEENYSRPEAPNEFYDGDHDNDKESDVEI

IC50 (Histone deacetylase 1) [µM]	IC50 (Histone deacetylase 3) [µM]	IC50 (Histone deacetylase) [µM]	IC50 [1] [µM]	IC50 (Insulin receptor) [µM]	EC50 [2] [µM]	IC50 [3] [µM]	IC50 [4] [µM]	IC50 [5] [µM]	IC50 [6] [µM]	IC50 [7] [µM]	IC50 [8] [µM]	IC50 (Histone deacetylase 8) [µM]	IC50 [9] [µM]	Structure (SMILES)	IC50 (SK-OV-3) [µM]	IC50 (CAL-27) [µM]	IC50 (A-431) [µM]	IC50 (SK-BR-3) [µM]	IC50 (A549) [µM]	IC50 (HeLa) [µM]	other results
0.94	0.56	0.43	0.0022	1.7	> 100	1.7	0.2	0.0035	1.8	0.05	> 100	0.98		O=C(NO)c1ccc(-c2ccc3ncnc(Nc4ccc(OCc5cccc(F)c5)c(Cl)c4)c3c2)s1	3.1	0.65	1.9	0.42	3.4		
0.61	6.3	0.63	0.0025	7.34	3.65	7.7	0.44	0.0041	3.3	0.23	120	11	12	O=C(/C=C/c1ccc(-c2ccc3ncnc(Nc4ccc(OCc5cccc(F)c5)c(Cl)c4)c3c2)o1)NO	2.1	0.82	1.9	0.51	3.9	3.2	IC50 [10]: < 0.032 µM
> 32	> 32	> 32	0.015	7.1		6.9	1.4	0.0047	4.7	> 32	> 100	> 32	27	Nc1ccccc1NC(=O)CCc1ccc(-c2ccc3ncnc(Nc4ccc(OCc5cccc(F)c5)c(Cl)c4)c3c2)cc1	13	0.2	8.6	4.4	22	8.3	
> 100	> 32	> 32	0.049	2.8	≥ 20	2.9	0.85	0.014	2.5	> 32	> 100	> 32	5.5	Nc1ccccc1NC(=O)/C=C/c1cccc(-c2ccc3ncnc(Nc4ccc(OCc5cccc(F)c5)c(Cl)c4)c3c2)c1	36	> 16	12	50	27	8.4	
> 100	> 32	> 32	0.026	5.5		4.9	1.9	0.0087	3.9	> 32	> 100	> 32	8.5	Nc1ccccc1NC(=O)/C=C/c1ccc(-c2ccc3ncnc(Nc4ccc(OCc5cccc(F)c5)c(Cl)c4)c3c2)o1	22	3.6	5.3	0.26	18	6.5	
> 50	> 32		0.0039	1.4	> 100	1.7	0.46	0.002	1		85	7.7	2	O=C(NO)c1ccc(-c2ccc3ncnc(Nc4ccc(OCc5cccc(F)c5)c(Cl)c4)c3c2)o1	15	0.2	> 5	0.27	> 16		
> 50	> 32	> 10	0.0028	2.5	> 100	6	2.1	0.0049	2.3	> 10	> 100	> 32	5.6	Nc1ccccc1NC(=O)c1ccc(-c2ccc3ncnc(Nc4ccc(OCc5cccc(F)c5)c(Cl)c4)c3c2)s1	3.9	0.71	2.4	0.62	9.1	3.7	
0.65	> 32	> 32	0.018	3.7	> 10	4.9	0.85	0.012	2.3	0.23	> 100	31	9.1	O=C(/C=C/c1ccc(-c2ccc3ncnc(Nc4ccc(OCc5cccc(F)c5)c(Cl)c4)c3c2)cc1)NO	1.2	0.28	0.51	0.33	1.1	0.92	
> 100	> 32	> 32	0.029	3	> 100	4.9	1.2	0.015	2.7	> 32	> 100	> 32	6.2	Nc1ccccc1NC(=O)/C=C/c1ccc(-c2ccc3ncnc(Nc4ccc(OCc5cccc(F)c5)c(Cl)c4)c3c2)cc1	16	4	3.6	17	15	3.1	
> 50	> 32	> 100	0.0029		> 100	4.5	15	0.0057	4	> 10	> 100	> 32	3.9	Nc1ccccc1NC(=O)c1ccc(-c2ccc3ncnc(Nc4ccc(OCc5cccc(F)c5)c(Cl)c4)c3c2)o1	> 50	0.33	> 5		≥ 16	8	

Structure (SMILES)	IC50 (Histone deacetylase 1) [µM]	IC50 (Histone deacetylase 3) [µM]	IC50 (Histone deacetylase) [µM]	IC50 [1] [µM]	IC50 (Insulin receptor) [µM]	EC50 [2] [µM]	IC50 [3] [µM]	IC50 [4] [µM]	IC50 [5] [µM]	IC50 [6] [µM]	IC50 [7] [µM]	IC50 [8] [µM]	IC50 (Histone deacetylase 8) [µM]	IC50 [9] [µM]	IC50 (SK-OV-3) [µM]	IC50 (CAL-27) [µM]	IC50 (A-431) [µM]	IC50 (SK-BR-3) [µM]	IC50 (A549) [µM]	IC50 (HeLa) [µM]	other results
CS(=O)(=O)CCNCc1ccc(-c2ccc3ncnc(Nc4ccc(OCc5cccc(F)c5)c(Cl)c4)c3c2)o1 [LAPATINIB]		> 10				> 30					> 10	> 100	> 10		0.003	0.007		0.002		5.9	
